The text below walks through data of publication PMC10934024, “Protein–Ligand Binding and Structural Modelling Studies of Pheromone-Binding Protein-like Sol g 2.1 from Solenopsis geminata Fire Ant Venom” (Molecules, 2024).

The subject of one assay is Sol i 2. As to conditions: cited from earlier work.
In assay [1] the target is T1, rSol g 2.1 protein (Solenopsis geminata, UniProt A0A9E7V488).
T1 sequence (A0A9E7V488 1-119): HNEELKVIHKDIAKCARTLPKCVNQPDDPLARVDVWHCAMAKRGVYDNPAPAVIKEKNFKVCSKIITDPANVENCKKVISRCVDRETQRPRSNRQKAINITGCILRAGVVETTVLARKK
Nature of the assay: Fluorescence binding assay, NPN titration into rSol g 2.1. As for the experimental part: The fluorescence binding assay of rSol g 2.1 protein was conducted using the fluorescent probe N-phenyl-1-naphtylamine (NPN). […] The fluorescence intensity was measured on a PTI QuantaMaster fluorometer (Horiba Ltd., Kyoto, Japan) with a 337 nm excitation wavelength and emission scan ranging from 300–500 nm at room temperature in triplicate. To obtain the equilibrium dissociation (Kd) value, the fluorescence intensity at the maximal emission wavelength 400 nm was plotted for each NPN concentration. Data were fitted to a specific allosteric binding model using GraphPad Prism Version 9.0 (GraphPad Software, San Diego, CA, USA). Y = Bmax × X^h/(Kd^h + X^h) was used as an equation in the fitting model, where Bmax is the maximal specific binding in the same unit as Y, X is the NPN concentration (µM), and Y is the fluorescence intensity counts/second. Moreover, h is the Hill slope, which is 1.0 for cases with one site. If there is more than one binding site per protein and there is cooperativity, then h > 1.0, and the graph takes on a sigmoidal appearance.

The target of assay [2] is T1, rSol g 2.1 protein. Nature of the assay: Fluorescence competitive binding assay (NPN displacement). As to conditions: 2 µM rSol g 2.1 with 4 µM NPN, ligand 0-4 µM, 50 mM Tris-HCl pH 7.4. As for the experimental part: The binding of the endogenous ligands, including decane, undecane dodecane, and tridecane, to rSol g 2.1 protein was measured by a competitive binding assay. In this procedure, 1 mL of rSol g 2.1 protein (2 µM) in 50 mM Tris-HCl (pH 7.4) containing NPN (4 µM) was titrated with each ligand (1 mM in methanol stock) to the final concentrations of 0, 0.125, 0.375, 0.625, 0.875, 1.125, 2, 3, and 4 µM. Additionally, the same concentrations of the blended ligands, which consisted of decane (45%), undecane (36%), dodecane (15%), and tridecane (4%), were used to investigate the blend effect of Sol g 2.1 protein. The resulting isotherms were fitted (GraphPad Prism 9) to both a one-site model and an allosteric model.

With `C=CC(=C)CC/C=C(\C)CCC=C(C)C` [(E)-β-farnesene], in the assay with Sol i 2, the binding affinity result was “high binding affinity”.
With `c1ccc(Nc2cccc3ccccc23)cc1` [NPN, N-phenyl-1-naphtylamine], the affinity at rSol g 2.1 protein [1] (2 µM rSol g 2.1, 50 mM Tris-HCl pH 7.4, NPN 0-12 µM, emission 400 nm, specific binding with Hill slope model), expressed as Kd, was 1.9 ± 0.08 µM. On rSol g 2.1 protein [1] (same fit as Kd of NPN), the “h slope (Hill slope)” value was determined as 1.64 ± 0.12.
For `CCCCCCCCCC` [decane, Decane], at rSol g 2.1 protein [2], the dissociation constant (Kd) – broadly, a measure of binding affinity in units of concentration – turned out to be 0.32 µM. Besides, the binding affinity entry in the assay on Sol i 2 is on record as “high binding affinity”.
On rSol g 2.1 protein [2], `CCCCCCCCCCCC` [dodecane, Dodecane] displayed a Kd of 0.39 µM.
With `CCCCCCCCCCCCC` [tridecane, Tridecane], the affinity on rSol g 2.1 protein [2], expressed as Kd, was 0.38 µM.
On rSol g 2.1 protein [2], `CCCCCCCCCCC` [undecane, Undecane] came in with a Kd of 0.33 µM. Moreover, the binding affinity result in the assay on Sol i 2 was “high binding affinity”.
